According to patent publication EP4458977A1, “SELF-ASSEMBLING PEPTIDE AMPHIPHILES AS RETROVIRAL TRANSDUCTION ENHANCERS” (Max-Planck-Gesellschaft zur Förderung der Wissenschaften …, priority 2023, dated 2024):
“And” between values parts separate entries of the source, which are not always exact repeats. Identical values can stand only once. Where a SMILES comes first, the peptide text is derived from it. The star is where a group is joined. 2‑naphthylmethyl = c1ccc2cc(C*)ccc2c1; Palmitoyl = CCCCCCCCCCCCCCCC(=O)*

Legend:
[1] = TEM of peptide assemblies (fibril formation / assembly); format: physicochemical; set-up: key to Fibril Formation: "1" means fibril formation observed; "0" means no fibrils observed; conditions: for TEM morphology (in words): 1 mg/mL in PBS; for Assembly without hydrophob residue: corresponding peptide without hydrophobic moiety; for Assembly: peptide amphiphile
Procedure, shortened: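 Peptides predissolved in DMSO at 10 mg/mL (stock), diluted in PBS to 650 µM or 1 mg/mL final and incubated 1 d at rt (20–25 °C) to form fibrils. Other concentrations obtained by diluting preformed fibrils; assemblies imaged by TEM.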

HeLa cells = experiment: Confocal laser scanning microscopy and degradation study with PA library and HeLa cells; format: cell-based; conditions: for association with cellular membranes: 2 µg added to 20.000 HeLa cells, 30 min; for degradability (in words) / Degradability / % (rel. to initial particles > 10 µm^2): HeLa cells; for degradability (in words): 3 days; for Degradability / % (rel. to initial particles > 10 µm^2): 3 d relative to 30 min; for aggregate number decreases / degraded in presence of HeLa cells within 3 days: d3 relative to d0
Procedure, shortened: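 HeLa cells (20,000/well) got Proteostat-stained PAs (2 µg peptide per 20.000 cells) with Hoechst nuclear stain, 30 min at 37°C, PBS-washed, then held 3 d at 37°C unwashed. Confocal imaging at d0 and d3 counted aggregates >10 µm^2 in 1008 × 1008 µm, three technical replicates. Degradation taken as d3/d0 aggregate number.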

[2] = Fluorescence microscopy of ThT-stained fibrils (µm-sized aggregates); format: physicochemical; conditions: for fluorescent, µm-sized aggregates (ThT staining): 1 mg/mL stained with 50 µM ThT
Procedure, shortened: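 Fibrils (1 mg mL^-1) mixed 1:9 with 50 µM ThT, giving 0.1 mg mL^-1 stained fibrils on glass. Imaged under 10x air objective with excitation 480/40 nm and emission 527/30 nm. Fibrils called distinct when no visible structures appeared in fluorescence or brightfield.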

HIV-1 = conditions: for Infectivity enhancing N fold at 1.3 µM: relative to virus only;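 as to all read-outs here: TZM-bl reporter cells exposed to HIV-1 with peptide fibrils, infection read out as β-galactosidase luminescence, compared with virus alone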
Protocol: HIV-1 Infection Assay with TZM-bl cells: The effect of peptide fibrils on HIV-1 infection was studied via a luminescence assay for β-galactosidase, which was reported by TZM-bl cells upon infection. The HIV-1 infection assay was conducted in three technical replicates and repeated in three independent experiments unless stated otherwise.

[3] = ATR-FT-IR determination of β-sheet content; format: physicochemical; conditions: 1 mg/mL in PBS lyophilized; integral at 1630 cm^-1 relative to 1650-1700 cm^-1
Procedure, shortened: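 Lyophilized fibril samples measured by diamond ATR-FT-IR, 2 cm^-1 resolution, 64 scans averaged. β-sheet content taken from the second-derivative spectrum as the 1630 cm-1 peak integral relative to the 1650-1700 cm-1 integral.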

[4] = Zeta-potential measurement (dynamic light scattering); format: physicochemical
[5] = Thioflavin T (ThT) fluorescence assay; format: physicochemical; conditions: relative to PBS control
Protocol: Transmission electron microscopy (TEM) measurements, Thioflavin (ThT), zeta-potential measurements for fibril characterization were prepared and conducted according to prior art procedures. […] Fibrils were defined as distinct, if no visible structures could be identified in fluorescence and brightfield microscopy. A peptide fibril was considered as ThT-active if the fluorescence intensity was at least twice as strong compared to the control (PBS containing 10% DMSO).

[6] = Zeta-potential measurement (dynamic light scattering); format: physicochemical; remark: listed apart in the source
Protocol: Zeta-potential: 60 µL of the peptides (1 mg mL-1) were diluted in 600 µL, 1 mM KCI solution and placed in a disposable folded capillary cuvette. All zeta-potential measurements were conducted by dynamic light scattering technology (Zetasizer, Malvern Instruments) and in triplicates for each sample. The derived count rate of the zeta potential measurement was used as information on the light scattering intensity and turbidity of the sample as a further indicator for microscopic aggregation.

Row | Compound | TEM morphology (in words) [1] | Assembly without hydrophob residue [1] | Assembly [1] | association with cellular membranes (HeLa cells) | degradability (in words) (HeLa cells) | Degradability / % (rel. to initial particles > 10 µm^2) (HeLa cells) [%] | aggregate number decreases / degraded in presence of HeLa cells within 3 days (HeLa cells) [%] | fluorescent, µm-sized aggregates (ThT staining) [2] | enhances infectivity at 1.3 µM concentration, times more efficient compared to virus only infection (HIV-1) [times] | Infectivity enhancing N fold at 1.3 µM (HIV-1) | β-sheet amount [3] [%] | Zeta-Potential / mV [4] [mV] | Fibril Formation ([1]; via TEM, hydrophobic moiety exchange) | formation of µm-sized aggregates in aqueous medium / PBS (in words) [2] | N-fold ThT-fluorescence [5] | infectivity enhancement at 1.3 µM concentration compared to virus only infection (in words) (HIV-1) | zeta-potential (in words) [6] | Count Rate / kcps ([6]; derived count rate of scattered light during zeta-potential measurements) [kcps]
1 | CCCCCCCCCCCCCCCC(=O)N[C@@H](C)C(=O)N[C@@H](CC(C)C)C(=O)N[C@@H](C)C(=O)N[C@@H](C)C(=O)NCC(=O)N[C@@H](CCCCN)C(=O)N[C@@H](CCCCN)C(N)=O [Pat20, C16-ALAAGKK-NH2] (Palmitoyl-ALAAGKK-NH2) | fibrillar morphologies | No | Yes | association with cellular membranes | degradable PA | 87 | 87 | fluorescent, µm-sized aggregates | 5 | 5±1 N fold | 48 | 20.2 | – | – | – | – | – | –
2 | CCCCCCCCCCCCCCCC(=O)N[C@@H](CC(C)C)C(=O)N[C@@H](CC(C)C)C(=O)N[C@@H](CC(C)C)C(=O)N[C@@H](CCCCN)C(=O)N[C@@H](CCCCN)C(N)=O [Pat23, C16-LLLKK-NH2] (Palmitoyl-LLLKK-NH2) | fibrillar morphologies | No | Yes | association with cellular membranes | moderately degradable PA | 27 | 27 | fluorescent, µm-sized aggregates | 3 | 3±0 N fold | 46 | 20.9 | – | – | – | – | – | –
3 | CCCCCCCCCCCCCCCC(=O)N[C@@H](C)C(=O)N[C@@H](CCCCN)C(=O)N[C@@H](C)C(=O)N[C@H](C(=O)NCC(=O)N[C@@H](CCCCN)C(N)=O)C(C)C [Pat31, C16-AKAVGK-NH2] (Palmitoyl-AKAVGK-NH2) | fibrillar morphologies | No | Yes | association with cellular membranes | degradable PA | 89 | 89 | fluorescent, µm-sized aggregates | 6 | 6 N fold and 6±3 N fold | 43 | 19.7 | – | – | – | – | – | –
4 | Nap-VVVAAAKKK-NH2 ({2‑naphthylmethyl}-VVVAAAKKK-NH2; SMILES CC(C)[C@H](NCc1ccc2ccccc2c1)C(=O)N[C@H](C(=O)N[C@H](C(=O)N[C@@H](C)C(=O)N[C@@H](C)C(=O)N[C@@H](C)C(=O)N[C@@H](CCCCN)C(=O)N[C@@H](CCCCN)C(=O)N[C@@H](CCCCN)C(N)=O)C(C)C)C(C)C) [Pat13] | formed fibrils in aqueous medium | No | Yes | – | – | – | – | – | – | 1±1 N fold | 46 | 1.2 | 1 | failed to form µm-sized aggregates in aqueous medium | 1.3 | does not enhance infectivity | almost neutral zeta-potential | 9.3
